Assay results from paper PMC12040169 (PLOS Biology, 2025).

Assay: in vitro
Settings: human, hela cells, % viability

Row | Compound | viability at 28.5 h, 10 µM
1 | CCCC/C=C/c1cnc(N)c(-c2cccc(N)c2)n1 [CBK063954] | 102%
2 | Cc1cccc(C(C)(C)C)c1OCCNCCN [CBK265058G] | 118%
3 | COC(=O)c1ccccc1NC(=O)CCSc1ccc(Cl)cc1 [CBK263817] | 109%
4 | Cc1nnc(SCc2cc(=O)nc(NC(=N)Nc3cccc(Cl)c3)[nH]2)s1 [CBK266318] | 75.5%
5 | O=[N+]([O-])c1ccccc1NCCNS(=O)(=O)c1ccccc1 [CBK263552] | 89%
6 | Cc1ccccc1-n1sc(=O)n(Cc2ccc(F)cc2)c1=O [CBK113605] | 101%
7 | Cn1c(Sc2ccc(C(=O)O)cc2[N+](=O)[O-])nnc1-c1ccccc1 [CBK265047] | 103%
8 | Cc1ccc(C(C)(C)CC(C)NC2C3CC4CC(C3)CC2C4)o1 (stereo not shown) [CBK262871] | 93.9%
9 | Cc1cc(C)n(CC(=O)N[C@H]2CC[C@H]2N)c(=O)n1 [CBK307647] | 91.9%
10 | Cc1ccc(-c2ccccc2CC2(C(=O)Nc3ccc(C(N)=O)cc3)CCOCC2)c(C)c1 [CBK286422] | 95.9%
11 | COc1ccc(C(NC(=O)C2CCN(C(=O)OC(C)C)CC2)c2ccccc2C)cn1 (stereo not shown) [CBK059704] | 101%
12 | O=C(NCc1ccc(F)cc1)N(Cc1cccc(Cl)c1)CC1CCNCC1 [CBK119479] | 117%
13 | Cc1nn(C)c(Cl)c1S(=O)(=O)NC1(c2ccc(F)cc2)CC1 [CBK282800] | 97.5%
14 | Cn1nccc1CN1CCC(Oc2ccccc2F)CC1 [CBK281618] | 92%
15 | CCOC(=O)c1cnc2ccc(Cl)cc2c1N1CCOCC1 [CBK307627] | 99.2%
16 | COc1ncc(-c2nccnc2NCc2cccnc2)c(OC)n1 [CBK036817] | 101%
17 | CC(C)NC(=O)[C@H]1O[C@H](CCN2CCN(c3ccc(F)cc3)CC2)CC[C@@H]1O [CBK288721] | 98.8%
18 | Cc1ccc(Cn2nc(NC(=O)c3cccn3C)c3ccccc32)cc1 [CBK048214] | 97.4%
19 | c1cncc(OCCN2CCN(c3nccnc3OCCN3CCOCC3)CC2)c1 [CBK082914] | 107%
20 | Cc1cc(O)n2nc(CC(=O)NCCCn3c(C)cccc3=O)nc2n1 [CBK306532] | 97.1%
21 | Cc1ccc(N(CC(=O)O)S(C)(=O)=O)cc1C [CBK286978] | 87.1%
22 | OCCN1CCN(c2cc(Nc3ccc(Oc4ccccc4)cc3)nc3ccnn23)CC1 [CBK037185] | 94.9%

Row | Compound | viability at 28.5 h, 10 µM
23 | O=C(C1CCC1)N1C2CCC1Cn1c(nc3ccccc3c1=O)C2 (stereo not shown) [CBK284453] | 91.5%
24 | Cc1ccc(-c2nnc3c4ccccc4c(C)nn23)cc1S(=O)(=O)NC(C)c1ccccc1 (stereo not shown) [CBK266715] | 94.5%
25 | O=C(O)Cn1cc(C(=O)COc2ccccc2)c2ccccc21 [CBK286708] | 85.4%
26 | O=C(CCS(=O)(=O)c1ccccc1)Nc1ccc(N2CCNCC2)c2ccccc12 [CBK028408T] | 92.6%
27 | Cc1ccc(Cl)c(OC(C)C(=O)NCC2(N3CCOCC3)CCSC2)c1 (stereo not shown) [CBK305681] | 110%
28 | COc1ccccc1NC(=O)N1C[C@@H]2C[C@H](C1)c1c(-c3ccccc3F)ccc(=O)n1C2 [CBK289192] | 92.7%
29 | CC(=O)Nc1ccc(NC(=O)CCC(=O)O)cc1C [CBK265395] | 95.3%
30 | O=C(NC(=O)C1CCNCC1)Nc1ccc(F)cc1F [CBK034793] | 115%
31 | O=C(CN1CCN(c2ccc(C(F)(F)F)cn2)CC1)c1ccc2c(c1)OCCO2 [CBK074700] | 98.3%
32 | C(CSC1=NCCN1)CSC1=NCCN1 [CBK278217B] | 106%
33 | O=C(COc1ccc(Br)cc1)N1CCN(Cc2ccncc2)CC1 [CBK073259] | 98.1%
34 | COc1ccc(CN2C(=S)N(c3ccccc3)[C@H]3[C@@H]2[C@H]2OC(=O)[C@@H]3C[C@H]2O)cc1 [CBK288937] | 108%
35 | CCOC(=O)c1[nH]c(=O)[nH]c1CSc1nc(C)cc(C)n1 [CBK019514] | 109%
36 | CCCc1cc(C(=O)N2CCNCC2C(=O)N2CCN(C)CC2)ccn1 (stereo not shown) [CBK307619] | 97.5%
37 | COc1ccc(C(=O)NC(=S)Nc2ccccc2N2CCN(C)CC2)cc1[N+](=O)[O-] [CBK268292C] | 87%
38 | Cn1c(CN2CCN(C(=O)Nc3ccccc3)CC2)nc2cc([N+](=O)[O-])ccc21 [CBK268260] | 91.8%
39 | O=C(NCCn1nc(-c2cccs2)ccc1=O)c1ccccc1F [CBK283835] | 86.1%
40 | CC(C)(C)c1ccc(OCC(=O)Nc2ccc(OCC(=O)O)cc2)cc1 [CBK287013] | 113%
41 | O=C(NCCCn1ccnc1)N1CCN(Cc2ccc(Cl)cc2)CC1 [CBK305894] | 101%
42 | COc1ncccc1C(=O)N1Cc2ccccc2C1 [CBK200324] | 101%
43 | CC(C)(C)OC(=O)NC1CCC(NCc2ccncc2)CC1 (stereo not shown) [CBK056688] | 98.8%
44 | COCCn1c(CO)nnc1[C@H]1C[C@@H](NC(=O)c2ccc(O)c(F)c2)C1 [CBK307132] | 74.1%

Row | Compound | viability at 28.5 h, 10 µM
45 | COc1ccc(C)cc1C1(CNC(=O)C2CC2C(=O)O)CCOCC1 (stereo not shown) [CBK304492] | 82%
46 | C#CCN(C)CC[C@@H]1CC[C@H](O)[C@@H](C(=O)N2CCOCC2)O1 [CBK288723] | 108%
47 | Cc1ccc(NC(=O)Nc2cc(S(N)(=O)=O)ccc2C)cc1 [CBK093428] | 98.5%
48 | N#Cc1sc2c(c1NC(=O)C(F)(F)F)CCCC2 [CBK019233] | 92.1%
49 | CN(C)CC(Oc1ccccc1)C(=O)c1ccccc1 (stereo not shown) [CBK011935C] | 101%
50 | CCNc1cc(N2CCN(C)CC2)ccc1NS(=O)(=O)c1ccc(F)cc1F [CBK001496C] | 95.8%
51 | COc1cc(C(=O)N2CCCC3(CCN(C(=O)c4ccoc4)C3)C2)cc(OC)c1OC (stereo not shown) [CBK131637] | 114%
52 | N#CCCN1CCCC2(C1)NCCc1c2[nH]c2ccccc12 (stereo not shown) [CBK040031] | 97%
53 | COc1ccccc1-c1nccnc1OCc1cccc(OC)c1OC [CBK106825] | 81.2%
54 | O=C(O)CCC(=O)Nc1ccc(Sc2ccc([N+](=O)[O-])cc2)cc1 [CBK020438] | 92.5%
55 | Cc1ccc(C2NS(=O)(=O)NC2=N)cc1 (stereo not shown) [CBK263848] | 95.2%
56 | c1ccc(-c2c(-c3ccccc3)n(Cc3ccco3)c3ncn4nc(-c5ccncc5)nc4c23)cc1 [CBK265298] | 89.6%
57 | CC(C)[C@@H](CO)Nc1nc(-c2ccc(S(C)(=O)=O)cc2)cnc1N [CBK063750] | 91.2%
58 | O=S(=O)(NCCc1cccs1)c1cc2c(N3CCNCC3)nccc2s1 [CBK041299C] | 104%
59 | O=C(CSc1ccccn1)Nc1ccc(C(=O)O)cc1 [CBK286605] | 87.2%
60 | O=C(O)CC1C(=O)NCCN1CCCc1ccccc1 (stereo not shown) [CBK287176] | 90.2%
61 | O=C1c2cccc3cccc(c23)C(=O)N1CCCSc1nnc(-c2ccncc2)n1-c1ccccc1 [CBK268684] | 91%
62 | Cc1c(C)n(Cc2ccccc2)c2ccc(C(=O)OCCN3CCOCC3)cc12 [CBK262427] | 104%
63 | CCN1CC2(CCN(CC3CC3)CC2)c2ccccc21 [CBK136987] | 92.6%
64 | CC(=O)N1C[C@H]2CCCN(S(=O)(=O)c3ccc4c(c3)CCC4)[C@H]2C1 [CBK282254] | 87.5%
